Among the data in US20250127170A1, “TRIAZINE HERBICIDAL COMPOUNDS” (SYNGENTA CROP PROTECTION AG, priority 2021, published 2025) are pest or weed control values, retold here.

The structures appear in SMILES notation.

What all share (assay type): in vivo
Holding throughout (details): 312 h, evaluated after 13 days, 100=total damage to plant, 0=no damage to plant

The subject of assay [1] is Setaria faberi (SETFA). Put plainly: Post-emergence biological efficacy. On the procedure:
(§1) Seeds of weeds and/or crops were sown in standard soil in pots (Amaranthus palmeri (AMAPA), Chenopodium album (CHEAL), Euphorbia heterophylla (EPHHL), Ipomoea hederacea (IPOHE), Eleusine indica (ELEIN), Lolium perenne (LOLPE), Digitaria sanguinalis (DIGSA), Setaria faberi (SETFA), Echinochloa crus-galli (ECHCG)). After cultivation for 14 days under controlled conditions in a glasshouse (at 24/19° C., day/night; 16 hours light), the plants were sprayed with an aqueous spray solution derived from the formulation of the technical active ingredient in a small amount of acetone and a special solvent and emulsifier mixture referred to as IF50 (11.12% Emulsogen EL360™+44.44% N-methylpyrrolidone+44.44% Dowanol DPM glycol ether), to create a 50 g/l solution which was then diluted using 0.2% Genapol XO80 as diluent to give the desired final dose of test compound. The test plants were then grown under controlled conditions in the glasshouse (at 24/18° C., day/night; 15 hours light; 50% humidity) and watered twice daily. After 13 days the test was evaluated (100=total damage to plant; 0=no damage to plant).

Assay [2] relates to Echinochloa crus-galli (ECHCG). Nature of the assay: Post-emergence biological efficacy. On the procedure: as §1
Assay [3] concerns Ipomoea hederacea (IPOHE). Nature of the assay: Post-emergence biological efficacy. On the procedure: as §1
A further assay has as its system Eleusine indica (ELEIN). Nature of the assay: Post-emergence biological efficacy. On the procedure:
as §1

Assay [4] relates to Euphorbia heterophylla (EPHHL). Put plainly: Post-emergence biological efficacy. The procedure:
as §1

Assay [5] deals with Digitaria sanguinalis (DIGSA). Put plainly: Post-emergence biological efficacy. The procedure: as §1
Assay [6] concerns Amaranthus palmeri (AMAPA). Put plainly: Post-emergence biological efficacy. On the procedure: as §1
Assay [7] has as its system Chenopodium album (CHEAL). Nature of the assay: Post-emergence biological efficacy. On the procedure: as §1
For assay [8], the system named is Lolium perenne (LOLPE). Put plainly: Post-emergence biological efficacy. The procedure:
as §1

For assay [9], the system named is Setaria faberi (SETFA). Put plainly: Pre-emergence biological efficacy. On the procedure: (§2) Seeds of weeds and/or crops were sown in standard soil in pots (Amaranthus palmeri (AMAPA), Lolium perenne (LOLPE), Euphorbia heterophylla (EPHHL), Ipomoea hederacea (IPOHE), Setaria faberi (SETFA), Echinochloa crus-galli (ECHCG)). After cultivation for one day under controlled conditions in a glasshouse (at 24/19° C., day/night; 16 hours light), the plants were sprayed with an aqueous spray solution derived from the formulation of the technical active ingredient in a small amount of acetone and a special solvent and emulsifier mixture referred to as IF50 (11.12% Emulsogen EL360™+44.44% N-methylpyrrolidone+44.44% Dowanol DPM glycol ether), to create a 50 g/l solution which was then diluted using 0.2% Genapol XO80 as diluent to give the desired final dose of test compound.
(§3) The test plants were then grown under controlled conditions in the glasshouse (at 24/18° C., day/night; 15 hours light; 50% humidity) and watered twice daily. After 13 days the test was evaluated (100=total damage to plant; 0=no damage to plant).

Assay [10] relates to Echinochloa crus-galli (ECHCG). Nature of the assay: Pre-emergence biological efficacy. The procedure:
as §2, §3

The subject of assay [11] is Ipomoea hederacea (IPOHE). Put plainly: Pre-emergence biological efficacy. The procedure: as §2, §3
In assay [12] the test system is Euphorbia heterophylla (EPHHL). Nature of the assay: Pre-emergence biological efficacy. The procedure:
as §2, §3

Assay [13] has as its system Amaranthus palmeri (AMAPA). Nature of the assay: Pre-emergence biological efficacy. The procedure:
as §2, §3

The subject of assay [14] is Lolium perenne (LOLPE). Nature of the assay: Pre-emergence biological efficacy. On the procedure: as §2, §3

Consider `CCOC(=O)C1(NC(=O)c2cc(-n3c(=O)n(C)c(=S)n(C)c3=O)c(F)cc2Cl)CC1` [Compound 1-240, ethyl 1-[[2-chloro-5-(3,5-dimethyl-2,6-dioxo-4-thioxo-1,3,5-triazinan-1-yl)-4-fluoro-benzoyl]amino]cyclopropanecarboxylate], for which the pest or weed control (in general, how far the test organism was held down) at 250 g/ha in the assay with Setaria faberi (SETFA) [1] was 80%; in assay [2] it was 30%; in assay [3], 60%; in the assay on Eleusine indica (ELEIN), 100%; in assay [4] it was 100%; in assay [5], 70%. Moreover, the pest or weed control at 250 g/ha in assay [6] worked out at 100%; in assay [7], 100%; with Lolium perenne (LOLPE) [8] it was 90%; in the assay with Setaria faberi (SETFA) [9], 70%; in [10], 30%; in [11], 10%. For the same molecule, the pest or weed control at 250 g/ha came to 100% in [12], 100% in [13] and 30% in the assay on Lolium perenne (LOLPE) [14].
Regarding `CCOC(=O)CCNC(=O)c1cc(-n2c(=O)n(C)c(=S)n(C)c2=O)c(F)cc1Cl` [Compound 1-342, Ethyl 3-[[2-chloro-5-(3,5-dimethyl-2,6-dioxo-4-thioxo-1,3,5-triazinan-1-yl)-4-fluoro-benzoyl]amino]propanoate], the pest or weed control at 250 g/ha in the assay on Setaria faberi (SETFA) [1] was 80%; in assay [2] it was 80%; in assay [3], 70%; in the assay on Eleusine indica (ELEIN), 10%; in [4], 40%; in [5], 50%. For the same molecule, the pest or weed control at 250 g/ha in assay [6] amounted to 30%; in [7], 30%; with Lolium perenne (LOLPE) [8], 20%; with Setaria faberi (SETFA) [9], 80%; in assay [10] it was 90%; in assay [11], 60%. In addition, the pest or weed control at 250 g/ha worked out at 90% in [12], 80% in assay [13] and 70% in the assay on Lolium perenne (LOLPE) [14].
Regarding `CCOC(=O)C[C@H](C)OC(=O)c1cc(-n2c(=O)n(C)c(=S)n(C)c2=O)ccc1Cl` [Compound 1-360 (S-enantiomer), [(1S)-3-ethoxy-1-methyl-3-oxo-propyl] 2-chloro-5-(3,5-dimethyl-2,6-dioxo-4-thioxo-1,3,5-triazinan-1-yl)benzoate], the pest or weed control at 250 g/ha in the assay with Setaria faberi (SETFA) [1] amounted to 100%; in assay [2] it was 100%; in assay [3], 70%; with Eleusine indica (ELEIN), 90%; in assay [4], 90%; in assay [5] it was 100%. The pest or weed control at 250 g/ha in assay [6] came to 100%; in assay [7], 100%; in the assay with Lolium perenne (LOLPE) [8], 100%; in the assay with Setaria faberi (SETFA) [9], 90%; in [10] it was 80%; in assay [11], 20%. The pest or weed control at 250 g/ha in assay [12] stood at 30%; in assay [13], 80%; with Lolium perenne (LOLPE) [14], 70%.
As for `CCOC(=O)C[C@H](C)OC(=O)c1cc(-n2c(=O)n(C)c(=S)n(C)c2=O)c(F)cc1Cl` [Compound 1-369 (S-enantiomer), [(1S)-3-ethoxy-1-methyl-3-oxo-propyl]-2-chloro-5-(3,5-dimethyl-2,6-dioxo-4-thioxo-1,3,5-triazinan-1-yl)-4-fluoro-benzoate], the pest or weed control at 250 g/ha came out at 100% in the assay on Setaria faberi (SETFA) [1]; 100% in assay [2]; 90% in assay [3]; 100% in the assay on Eleusine indica (ELEIN); 100% in assay [4]; 100% in assay [5]. Moreover, the pest or weed control at 250 g/ha in assay [6] stood at 100%; in assay [7] it was 100%; in the assay with Lolium perenne (LOLPE) [8], 100%; in the assay with Setaria faberi (SETFA) [9], 100%; in [10], 100%; in assay [11] it was 50%. In addition, the pest or weed control at 250 g/ha in [12] is 90%; in assay [13], 100%; with Lolium perenne (LOLPE) [14] it was 90%.
For the molecule `CCOC(=O)CC(C)N(C)C(=O)c1cc(-n2c(=O)n(C)c(=S)n(C)c2=O)c(F)cc1Cl` (stereo not drawn) [Compound 1-405, Ethyl 3-[[2-chloro-5-(3,5-dimethyl-2,6-dioxo-4-thioxo-1,3,5-triazinan-1-yl)-4-fluoro-benzoyl]-methyl-amino]butanoate], the pest or weed control at 250 g/ha with Setaria faberi (SETFA) [1] came out at 10%; in [2], 10%; in assay [3] it was 40%; in the assay on Eleusine indica (ELEIN), 50%; in assay [4], 20%; in [5], 40%. Further, the pest or weed control at 250 g/ha was determined as 60% in [6]; 60% in assay [7]; 10% in the assay on Lolium perenne (LOLPE) [8]; 0% in the assay with Setaria faberi (SETFA) [9]; 0% in assay [10]; 0% in [11]. Besides, the pest or weed control at 250 g/ha (in assay [12]; in [13]; in the assay on Lolium perenne (LOLPE) [14]) was 0% throughout.
In the case of `CCOC(=O)CC(CC)OC(=O)c1cc(-n2c(=O)n(C)c(=S)n(C)c2=O)c(F)cc1Cl` (stereo not drawn) [Compound 1-420, (3-Ethoxy-1-ethyl-3-oxo-propyl) 2-chloro-5-(3,5-dimethyl-2,6-dioxo-4-thioxo-1,3,5-triazinan-1-yl)-4-fluoro-benzoate], the pest or weed control at 250 g/ha in the assay with Setaria faberi (SETFA) [1] is 90%; in assay [2] it was 40%; in assay [3], 50%; in the assay on Eleusine indica (ELEIN), 50%; in assay [4] it was 70%; in [5], 30%. Also, the pest or weed control at 250 g/ha was 100% in assay [6]; 100% in assay [7]; 100% with Lolium perenne (LOLPE) [8]; 100% in the assay on Setaria faberi (SETFA) [9]; 100% in assay [10]; 30% in assay [11]. Further, the pest or weed control at 250 g/ha was found to be 100% in assay [12], 100% in assay [13] and 90% in the assay on Lolium perenne (LOLPE) [14].
With `CCOC(=O)C(Cl)COC(=O)c1cc(-n2c(=O)n(C)c(=S)n(C)c2=O)c(F)cc1Cl` (stereo not drawn) [Compound 1-675, (2-Chloro-3-ethoxy-3-oxo-propyl) 2-chloro-5-(3,5-dimethyl-2,6-dioxo-4-thioxo-1,3,5-triazinan-1-yl)-4-fluoro-benzoate], the pest or weed control at 250 g/ha was determined as 90% with Setaria faberi (SETFA) [1]; 80% in [2]; 100% in [3]; 90% with Eleusine indica (ELEIN); 90% in assay [4]; 90% in assay [5]. Also, the pest or weed control at 250 g/ha in assay [6] turned out to be 100%; in [7] it was 100%; with Lolium perenne (LOLPE) [8], 80%; with Setaria faberi (SETFA) [9] it was 90%; in assay [10] it was 100%; in assay [11], 40%. In addition, the pest or weed control at 250 g/ha in assay [12] came out at 80%; in assay [13], 100%; in the assay with Lolium perenne (LOLPE) [14], 90%.
